Data reported in PubChem BioAssay (NCI).
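Where inhibition never reached the appropriate level, the endpoint shown equals the highest concentration tested. Otherwise, values were interpolated linearly from a five-concentration, 48-hour dose response in 96-well plates. TGI marks complete inhibition of growth.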

How the values were obtained:
Experiment in all cases: growth of human tumour cells (NCI), 48 h
EKVX NSCLC = system: EKVX NSCLC
HOP-92 NSCLC = system: HOP-92 NSCLC
HS 578T breast = system: HS 578T breast
HT29 colon = system: HT29 colon
LOX IMVI melanoma = system: LOX IMVI melanoma
MCF7 breast = system: MCF7 breast
MDA-MB-435 = system: MDA-MB-435
NCI-H460 lung = system: NCI-H460 lung
OVCAR-8 ovarian = system: OVCAR-8 ovarian
SNB-75 CNS = system: SNB-75 CNS

| SMILES | TGI (EKVX NSCLC) | TGI (HOP-92 NSCLC) | TGI (HS 578T breast) | TGI (HT29 colon) | TGI (LOX IMVI melanoma) | TGI (MCF7 breast) | TGI (MDA-MB-435) | TGI (NCI-H460 lung) | TGI (OVCAR-8 ovarian) | TGI (SNB-75 CNS) |
| --- | --- | --- | --- | --- | --- | --- | --- | --- | --- | --- |
| CN(C)c1ccc(/C=C2\C[C@H]3[C@@H]4CCc5cc(O)ccc5[C@H]4CC[C@]3(C)C2=O)cc1 | > 100 µM | > 100 µM | 30.5 µM | > 100 µM | > 100 µM | > 100 µM | > 100 µM | > 100 µM | > 100 µM | > 100 µM |
| Nc1ccc(-c2nc3ccccc3s2)cc1 | 87.4 µM | 31.9 µM | > 84 µM | 40.1 µM | 33 µM | 39.4 µM | 32.1 µM | 43.1 µM | 17.7 µM | 58.1 µM |
| C=CCn1c(=O)c2ccccc2[n+]2c(-c3cccc([N+](=O)[O-])c3)csc12 | > 100 µM | > 100 µM | > 100 µM | > 100 µM | > 100 µM | > 100 µM | > 100 µM | > 100 µM | > 100 µM | 69.9 µM |
| COc1cc(-c2[o+]c3cc(O)cc(OC4OC(CO)C(O)C(O)C4O)c3cc2OC2OC(CO)C(O)C(O)C2O)cc(OC)c1O (centres undefined) | > 100 µM | > 100 µM | > 100 µM | > 100 µM | > 100 µM | > 100 µM | > 100 µM | > 100 µM | > 100 µM | > 100 µM |
| COC(=O)C(C(=O)OC)C1CC(=O)c2c(Br)sc(Br)c21 (centres undefined) | 32.4 µM | 35 µM | 85.7 µM | 32.9 µM | 26.7 µM | 73.2 µM | 40.9 µM | 40.4 µM | 37.8 µM | 75 µM |
| O=C(NCc1cccnc1)C(=O)NCc1cccnc1 | > 100 µM | > 100 µM | > 100 µM | > 100 µM | > 100 µM | > 100 µM | > 100 µM | > 100 µM | > 100 µM | > 100 µM |
| O=C1C(=Cc2ccccc2[N+](=O)[O-])N=C(c2ccccc2)N1n1c(-c2ccccc2)nc2ccccc2c1=O | > 100 µM | 49.3 µM | 86 µM | > 100 µM | 68.5 µM | 52.4 µM | > 100 µM | 99.1 µM | 78.7 µM | > 100 µM |
| Cc1cc(C)c2c(c1)CC1(Cc3c(C)cc(C)cc3C1=O)C2=O (centres undefined) | > 100 µM | > 100 µM | > 100 µM |  | > 100 µM | > 100 µM | > 100 µM | > 100 µM | > 100 µM | > 100 µM |
| CCOC(=O)CCC(C(=O)OCC)n1nnc2cc(Nc3c(C)[n+]([O-])c4ccc(Cl)cc4[n+]3[O-])ccc21 (centres undefined) | 97.1 µM | > 100 µM | > 100 µM | > 100 µM | > 100 µM | 93 µM | > 100 µM | > 100 µM | > 100 µM | > 100 µM |
| O=C(Nc1nc(C23CC4CC(CC(C4)C2)C3)cs1)c1cc2cc([N+](=O)[O-])ccc2oc1=O | > 100 µM | > 100 µM | 67.9 µM | > 100 µM | > 100 µM | > 100 µM | > 100 µM | > 100 µM | > 100 µM | 74.9 µM |
| COc1ccc(C2NC(=O)Nc3c2c(=O)oc2c3ccc3ccccc32)cc1 (centres undefined) | 96.8 µM | > 100 µM | > 100 µM | > 100 µM | > 100 µM | > 100 µM | > 100 µM | > 100 µM | > 100 µM | 75.8 µM |
| COC(=O)C1[C@H](C(=O)OC)C1(Br)CBr (some centres undefined) | > 100 µM | > 100 µM | > 100 µM | > 100 µM | > 100 µM | > 100 µM | > 100 µM | > 100 µM | > 100 µM | > 100 µM |
| C/C(=C\CNc1nc(Cl)nc2nc[nH]c12)CO | > 100 µM | > 100 µM | > 100 µM | > 100 µM | > 100 µM | > 100 µM | > 100 µM | > 100 µM | > 100 µM | > 100 µM |
| COC1=CC(=O)c2c(cc(COP(=O)(N(C)CCBr)N(C)CCBr)n2C)C1=O | 6.55 µM | 7.54 µM | 5.04 µM | 1.42 µM | 3.31 µM | 8.42 µM | 2.35 µM | 9.44 µM | 3.98 µM | 0.971 µM |
| CCCCCCCCC[n+]1cccc(C2C(C(=O)OCC)=C(C)NC(C)=C2C(=O)OCC)c1 | 27.8 µM | 6.52 µM | 10.7 µM | 11.7 µM | 9.34 µM | 6.74 µM | 4.48 µM | 19.3 µM | 11.2 µM | 11.6 µM |
| O=C(NCc1ccccc1)c1c(O)c2ccccc2[nH]c1=O | > 100 µM | > 100 µM | > 100 µM | > 100 µM | > 100 µM | > 100 µM | > 100 µM | > 100 µM | > 100 µM | > 100 µM |
| COc1ccc(C2=NNC(=O)c3ccccc3N2c2nc(-c3cccs3)nc3ccc(Br)cc23)cc1 | 91.5 µM | > 100 µM | > 100 µM | > 100 µM | > 100 µM | > 100 µM | > 100 µM | > 100 µM | > 100 µM | > 100 µM |
